Results: patent US6454951B1, “Photosensitive composition” (priority 1996, dated 2002)

Experiments:
Escherichia coli = test: Photo-inactivation of bacteria by visible light irradiation (cell survival); conditions: in words
Vibrio anguillarum = test: as above; assay type: cell-based; conditions: in words

Substance: Meso-di(N-methyl-4-pyridyl)diphenylporphine [Di(4-N-MPy)Ph2P]
- Photo-inactivation compared with T4MPyP (Escherichia coli): more rapid and more intense photo-inactivation
- Effect of washing operations on photosensitizing efficiency (Vibrio anguillarum; Gram-negative bacteria, FIG. 1, visible light): less sensitive to washing and retains a high photoactivity
- Photo-inactivation compared with T4MPyP (Vibrio anguillarum; Vibrio anguillarum, visible light): more rapid and more intense photo-inactivation
